Results on three compounds are retold here after patent US20100004333A1, “COMPOSITIONS AND METHODS FOR TREATING CARDIOVASCULAR DISORDERS” (priority 2004, published 2010).

For assay [1], the system named is aortic rings from rabbits. Put plainly: HOCl-induced endothelial dysfunction in aortic rings from rabbits fed supplemented diet. It is filed as in vivo, New Zealand White rabbits. The conditions noted are these: dietary 1% probucol, 0.2% DTBP or 0.02% BP, 4 weeks; for Relaxation to ACh of aortic rings after 400 μM HOCl: FIG. 6A; for Tissue cGMP of aortic rings after 400 μM HOCl and 1 μM ACh: FIG. 6B. The method, then: (§1) All other reagents were of the highest quality available. Buffers were routinely filtered, argon-flushed and stored at 4° C. prior to use. Solutions of HOCl were prepared freshly before use by diluting reagent HOCl (Aldrich) into phosphate buffer (250 mM, pH 7.0) and standardizing with ε235 nm˜100 M^−1cm^−1 (hypochlorous acid) and ε290 nm˜300 M^−1cm^−1 (hypochlorite), as described in Journal of Physical Chemistry 1966, 70:3798-3805. Animals: New Zealand White rabbits (2.5-3 kg) were obtained from a commercial farm (Wauchope, NSW Australia) and housed individually for the entire study period. […] Feed and water were provided ad libitum for a period of 4 weeks judged to be sufficient time for circulating drug levels to reach a maximum (data not shown). […] The local ethics committee approved the study. Vascular reactivity: Perfused rabbit aortas were harvested and vascular reactivity studies performed as described in Circulation 2003, 107:2031-2036. Briefly, within 2 h of isolation, ring segments ˜5 mm in length were mounted in a myobath system (World Precision Instruments, Sarasota, Fla.) containing 20 mL of Krebs solution aerated at 37° C. with 5% CO2(g), and the dilatory response of half maximally norepinephrine pre-constricted rings to incremental doses of ACh (10^−9-10^−5 mol/L) determined. Where indicated, reagent HOCl (final concentration 400 μM) was added to the Krebs solution and the rings incubated for 5 min prior to thorough washing, pre-constriction and assessment of vessel relaxation. In some studies rings were incubated with probucol or DTBP for 10 min, washed thoroughly and then exposed to HOCl prior to assessing endothelium-dependent relaxation. A maximum of three consecutive sequences of constriction/relaxation were performed for each ring. Preparation of Aortic Homogenates: Aortic Rings Used in the Vascular Function Studies were removed and immediately cut into small pieces, frozen in liquid nitrogen, and then pulverized and homogenized as described. An aliquot (50 μL) of homogenate was removed for protein determination (BCA assay, Sigma) and the remainder extracted into methanol/hexane (5:1, v/v), the resulting hexane fraction dried and the residue suspended in isopropanol for analysis of probucol and its oxidation products. For cGMP determinations, aortic segments were treated with vehicle (control) or HOCl (400 μM) before addition of 1 μM ACh in the presence of 200 μM 3-isobutyl-1-methylxanthine and measurement of cGMP in the homogenate using a kit (Cayman Chemical, Ann Arbor, Mich.). Probucol oxidation studies: Probucol is a highly lipophilic compound (partition coefficient between octanol and water=[…]) that readily distributes into lipoproteins. To mimic the biological situation, oxidation reactions were therefore performed with probucol (or DTBP) dissolved in hexane (2 mL) to which aliquots of HOCl were added to give the final concentrations indicated. The heterogeneous mixtures were shaken vigorously at 37° C. for 60 min, then placed on ice after adding 1 mL water, the hexane phase removed, dried under vacuum and resuspended in isopropanol (200 μL) for HPLC analyses (see below). The aqueous phase was analyzed for the content of sulfate anion (SO4^2−) by ion exchange chromatography (see below). Analytical analyses: Probucol, DTBP, BP and DPQ were analyzed by gradient reversed-phase HPLC and quantified by peak area comparison with authentic standards. Under the conditions used, BP, DTBP, probucol and DPQ eluted at 12.5, 19.2, 20.8 and 28.4 min, respectively. Other oxidation products resolved by this HPLC system were also quantified by peak area comparison, using analytically pure samples obtained from semi-preparative (LC-18, 20 mm×25 cm, 5 μm) fractionation of the reaction mixture. Isolated samples were dried under vacuum, re-dissolved to a known concentration and assessed for purity by analytical HPLC (LC-18, 4.6 mm×25 cm, 5 μm) in combination with mass spectrometry (see below). […]

The subject of assay [2] is New Zealand White rabbits. Put plainly: Apoptosis (TUNEL) and proliferation (PCNA) of vascular cells after aortic balloon injury in rabbits. The following applies: for Apoptosis (TUNEL+ cells): FIG. 16d; for Cell proliferation (PCNA+ cells): FIG. 16e. In kind it is in vivo. From the text:
Materials and methods were as described in Example 6, except that for some experiments, aortas were also harvested 4 days (n=8 per group) after balloon injury. Sections immediately adjacent sections to those used for lesion assessment were employed for immunohistochemistry, using CD31 (endothelium, dilution 1:50, DAKO), Mac-3 (macrophages, dilution 1:200, DAKO), PCNA (cell proliferation, dilution 1:500, DAKO) and anti-rat HO-1 monoclonal antibody (dilution 1:50, Santa Cruz) with avidin-biotin-horseradish peroxidase for signal detection (Vectorstain Elite ABC Kit, Vector Laboratories). Apoptosis was assessed using the TUNEL assay kit (Roche) according to the manufacture's instructions. Digital images were taken for quantitative morphometric analysis. Intimal, medial and Mac-3^+ areas were determined using Adobe Photoshop V6.0 by tracing. Re-endothelialization was determined in longitudinal sections as the distance of CD31^+ cells from the branch orifice using Scion Image Software (Scion, ML, USA). Total cell profiles, TUNEL^+ and PCNA^+ cells were counted manually at high magnification (40× objective).

Assay [3] has as its system New Zealand White rabbits. The experiment in a line: Re-endothelialization and vascular reactivity after aortic balloon injury in rabbits. The conditions noted are these: for Endothelium-dependent relaxation (acetylcholine) / Tissue content of cGMP in response to acetylcholine: aortic rings six weeks after injury; for Endothelium-dependent relaxation (acetylcholine): FIG. 15c; for Tissue content of cGMP in response to acetylcholine: FIG. 15d; for Regeneration of endothelium (length covered by CD31+ cells) / Intima-to-media ratio at CD31-positive sites: six weeks after injury; for Regeneration of endothelium (length covered by CD31+ cells): FIG. 15b; for Intima-to-media ratio at CD31-positive sites: not shown. It is filed as in vivo.

Assay [4] can be described thus: Stopped-flow kinetics of reaction with HOCl in 70% aqueous ethanol. It is filed as physicochemical. The conditions noted are these: 70% EtOH, 25° C.
For assay [5], the system named is aortic rings from rabbits. In kind it is cell-based, New Zealand White rabbits. The following applies: for Protection of aortic rings from HOCl-induced loss of response to ACh: 10 min pre-incubation with 10, 25 or 100 μM, FIG. 7. How it is done: as §1, with “Preparation of Aortic Homogenates: Aortic Rings Used in the Vascular Function Studies were removed and immediately cut into small pieces, frozen in liquid nitrogen, and then pulverized and homogenized as described. An aliquot (50 μL) of homogenate was removed for protein determination (BCA assay, Sigma) and the remainder extracted into methanol/hexane (5:1, v/v), the resulting hexane fraction dried and the residue suspended in isopropanol for analysis of probucol and its oxidation products. For cGMP determinations, aortic segments were treated with vehicle (control) or HOCl (400 μM) before addition of 1 μM ACh in the presence of 200 μM 3-isobutyl-1-methylxanthine and measurement of cGMP in the homogenate using a kit (Cayman Chemical, Ann Arbor, Mich.).” left out, “To mimic the biological situation, oxidation reactions were therefore performed with probucol (or DTBP) dissolved in hexane (2 mL) to which aliquots of HOCl were added to give the final concentrations indicated. The heterogeneous mixtures were shaken vigorously at 37° C. for 60 min, then placed on ice after adding 1 mL water, the hexane phase removed, dried under vacuum and resuspended in isopropanol (200 μL) for HPLC analyses (see below).” left out, “Under the conditions used, BP, DTBP, probucol and DPQ eluted at 12.5, 19.2, 20.8 and 28.4 min, respectively.” left out

Assay [6] relates to New Zealand White rabbits. The experiment in a line: Rabbit aortic balloon-injury model with heme oxygenase blocked by tin protoporphyrin. It is filed as in vivo. The following applies: plus tin protoporphyrin 7.5 mg/kg i.p. every other day; for Ability to inhibit intimal thickening when heme oxygenase is blocked: nine weeks, FIG. 19a; for Ability to promote re-endothelialization when heme oxygenase is blocked: FIG. 19b; for Ability to inhibit vascular smooth muscle cell proliferation when heme oxygenase is blocked: FIG. 19c. How it is done:
Inhibition of heme oxygenase activity. Three groups of male New Zealand White rabbits (n=6 per group) that were fed 100 g per day of normal chow±1% probucol or 0.02% DTBP (wt/wt) received intraperitoneal injection of tin protoporphyrin (SnPP, Frontier Scientific, 7.5 mg/kg) every other day as described in American Journal of Physiology, Heart and Circulatory Physiology 2000; 278:H623-H632 for the entire nine week duration of the experiment, with balloon injury at the end of week three and lesion assessment after a further six weeks.

Where [7] appears, read: day 4 after aortic balloon injury.
Setting [8] is: day 42 after aortic balloon injury.

As to `CC(C)(C)c1cc(-c2cc(C(C)(C)C)c(O)c(C(C)(C)C)c2)cc(C(C)(C)C)c1O` [BP, 3,3′,5,5′-tetra-tert-butyl-4,4′-bisphenol], in assay [1], the “Relaxation to ACh of aortic rings after 400 μM HOCl” value (“Relaxation to ACh of aortic rings” below) is given as “responded to HOCl indistinguishably from control”; the “Tissue cGMP of aortic rings after 400 μM HOCl and 1 μM ACh” value (“Tissue cGMP of aortic rings” for short) is “ineffective”. The “Apoptosis (TUNEL+ cells)” value in assay [2] (setting [7]) is given as “not BP”.
Take `CC(C)(C)c1cc(SSc2cc(C(C)(C)C)c(O)c(C(C)(C)C)c2)cc(C(C)(C)C)c1O` [DTBP, 4,4′-dithiobis(2,6-di-tert-butyl-phenol)]: in assay [3], the “Endothelium-dependent relaxation (acetylcholine)” value was “enhanced”, the “Tissue content of cGMP in response to acetylcholine” value is “enhanced”, the “Regeneration of endothelium (length covered by CD31+ cells)” value is “significantly enhanced” and the “Intima-to-media ratio at CD31-positive sites” value is given as “significantly decreased”. Further, in assay [1], the “Relaxation to ACh of aortic rings” value is “preserved the vascular function of isolated rings to an extent comparable to that seen with probucol”; the “Tissue cGMP of aortic rings” value was “increase in tissue cGMP”. For the same compound, the “Rate constant k for oxidation by HOCl (single rate-determining process)” value in assay [4] was 0.7±0.1×10^2 M^−1 s^−1. In addition, the “Protection of aortic rings from HOCl-induced loss of response to ACh” value in assay [5] (washed, then 400 μM HOCl) is given as “protected aortic rings from HOCl-induced dysfunction when added in vitro”. Also, in assay [2] (day 4 after ABI), the “Cell proliferation (PCNA+ cells)” value is recorded as “not day 4”. Moreover, the “Apoptosis (TUNEL+ cells)” value in assay [2] (setting [7]) was “significantly enhanced apoptosis”. Besides, in assay [2] (day 42 after ABI), the “Cell proliferation (PCNA+ cells)” value is “significant decrease in cell proliferation”. In addition, the “Apoptosis (TUNEL+ cells)” value in assay [2] (setting [8]) was “not at day 42”. In assay [6], the “Ability to inhibit intimal thickening when heme oxygenase is blocked” value is recorded as “completely prevented”, the “Ability to promote re-endothelialization when heme oxygenase is blocked” value was “completely prevented” and the “Ability to inhibit vascular smooth muscle cell proliferation when heme oxygenase is blocked” value is “completely prevented”.
Regarding `CC(C)(Sc1cc(C(C)(C)C)c(O)c(C(C)(C)C)c1)Sc1cc(C(C)(C)C)c(O)c(C(C)(C)C)c1` [probucol], in assay [3], the “Endothelium-dependent relaxation (acetylcholine)” value was “enhanced”, the “Tissue content of cGMP in response to acetylcholine” value is on record as “enhanced”, the “Regeneration of endothelium (length covered by CD31+ cells)” value is “significantly enhanced” and the “Intima-to-media ratio at CD31-positive sites” value is recorded as “significantly decreased”. Besides, in assay [1], the “Relaxation to ACh of aortic rings” value was “retained responsiveness to ACh”; the “Tissue cGMP of aortic rings” value is reported as “greater content of cGMP”. In assay [4], the “Rate constant k1 for oxidation by HOCl (rapid phase of DPQ accumulation)” value is given as 2.7±0.3×10^2 M^−1 s^−1 and the “Rate constant k2 for oxidation by HOCl (slow phase of DPQ accumulation)” value is 0.7±0.2×10^2 M^−1 s^−1. The “Protection of aortic rings from HOCl-induced loss of response to ACh” value in assay [5] (washed, then 400 μM HOCl) is recorded as “protected the vessels from HOCl-induced loss of response to ACh in a concentration dependent manner”. Besides, the “Concentration at which full protection from HOCl-induced loss of response to ACh was seen” value in assay [5] (10 min pre-incubation, washed, then 400 μM HOCl) is 100 µM. The “Tissue cGMP in response to ACh” value in assay [5] (rings pre-treated with 100 μM, FIG. 7B) is “increased tissue content of cGMP”. For the same compound, the “Cell proliferation (PCNA+ cells)” value in assay [2] (day 4 after ABI) is on record as “not day 4”. In addition, the “Apoptosis (TUNEL+ cells)” value in assay [2] (setting [7]) was “significantly enhanced apoptosis”. Further, the “Cell proliferation (PCNA+ cells)” value in assay [2] (day 42 after ABI) is reported as “significant decrease in cell proliferation”. Moreover, in assay [2] (setting [8]), the “Apoptosis (TUNEL+ cells)” value was “not at day 42”. Moreover, in assay [6], the “Ability to inhibit intimal thickening when heme oxygenase is blocked” value is reported as “completely prevented”, the “Ability to promote re-endothelialization when heme oxygenase is blocked” value is “completely prevented” and the “Ability to inhibit vascular smooth muscle cell proliferation when heme oxygenase is blocked” value was “completely prevented”.
